molecular target: T1, human mineralocorticoid receptor (MR) (Homo sapiens, UniProt P08235); test: Cellular in vitro assay to determine the inhibitory MR activity (GAL4-MR chimera, luciferase reporter, CHO K1 cells); assay type: cell-based; conditions: recombinant CHO K1 cells, GAL4-MR ligand-binding domain chimera, agonist aldosterone, luciferase readout
T1 construct: expressed in transfected cells; host or cells: CHO K1
T1 sequence (P08235 734-984 limits assumed): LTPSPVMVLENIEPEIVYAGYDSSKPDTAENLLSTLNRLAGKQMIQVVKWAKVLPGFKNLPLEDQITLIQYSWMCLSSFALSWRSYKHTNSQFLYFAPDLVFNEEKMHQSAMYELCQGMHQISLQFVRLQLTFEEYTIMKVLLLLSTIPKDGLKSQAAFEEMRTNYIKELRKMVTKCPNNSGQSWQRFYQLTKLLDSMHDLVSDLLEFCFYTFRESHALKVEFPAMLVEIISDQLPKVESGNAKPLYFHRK
Source text: 1. Cellular In Vitro Assay to Determine the Inhibitory MR Activity and MR Selectivity Compared with other Steroid Hormone Receptors
Antagonists of the human mineralocorticoid receptor (MR) are identified, and the activity of the compounds described herein is quantified with the aid of a recombinant cell line. The cell is originally derived from a hamster ovary epithelial cell (Chinese Hamster Ovary, CHO K1, ATCC: American Type Culture Collection, VA 20108, USA).
An established chimera system in which the ligand-binding domains of human steroid hormone receptors are fused to the DNA-binding domain of the yeast transcription factor GAL4 is used in this CHO K1 cell line. The GAL4-steroid hormone receptor chimeras produced in this way are cotransfected and stably expressed with a reporter construct in the CHO cells.
To generate the GAL4-steroid hormone receptor chimeras, the GAL4 DNA binding domain (amino acids 1-147) from the vector pFC2-dbd (from Stratagene) is cloned with the PCR-amplified ligand-binding domains of the mineralocorticoid receptor (MR, amino acids 734-985), of the glucocorticoid receptor (GR, amino acids 443-777), of the progesterone receptor (PR, amino acids 680-933) and of the androgen receptor (AR, amino acids 667-919) into the vector pIRES2 (from Clontech). The reporter construct, which comprises five copies of the GAL4 binding site upstream of a thymidine kinase promoter, leads to expression of firefly-luciferase (Photinus pyralis) after activation and binding of the GAL4-steroid hormone receptor chimeras by the respective specific agonists aldosterone (MR), dexamethasone (GR), progesterone (PR) and dihydrotestosterone (AR).
The MR, GR, PR and AR cells are plated out in medium (Optimem, 2.5% FCS, 2 mM glutamine, 10 mM HEPES) in 96- (or 384- or 1536-) well microtiter plates on the day before the assay and are kept in a cell incubator (96% humidity, 5% v/v CO2, 37° C.). On the day of the assay, the substances to be tested are taken up in the abovementioned medium and added to the cells. About 10 to 30 minutes after addition of the test substances, the respective specific agonists of the steroid hormone receptors are added. After a further incubation time of 5 to 6 hours, the luciferase activity is measured with the aid of a video camera. The measured relative light units as a function of the substance concentration result in a sigmoidal stimulation curve. The IC50 values are calculated with the aid of the GraphPad PRISM computer program (Version 3.02).

Point of comparison: `CCOc1nccc2c1C(c1ccc(C#N)cc1OC)C(C#N)=C(C)N2` (stereo not drawn) [Example 25, 4-(4-Cyano-2-methoxyphenyl)-5-ethoxy-2-methyl-1,4-dihydro-1,6-naphthyridine-3-carbonitrile], IC50 87 nM. Against it:
- CCOc1nccc2c1C(c1cccc3c(=O)cc(C)oc13)C(C#N)=C(C)N2 (stereo not drawn) [Example 4, 5-Ethoxy-2-methyl-4-(2-methyl-4-oxo-4H-chromen-8-yl)-1,4-dihydro-1,6-naphthyridine-3-carbo-nitrite] — 3.1-fold higher, 273 nM
- CCS(=O)(=O)Oc1nccc2c1C(c1cccc3c(=O)cc(C)oc13)C(C(C)=O)=C(C)N2 (stereo not drawn) [Example 10, 3-Acetyl-2-methyl-4-(2-methyl-4-oxo-4H-chromen-8-yl)-1,4-dihydro-1,6-naphthyridin-5-yl ethane-sulfonate] — within 1.5-fold, 75 nM
- CCOc1nccc2c1C(c1ccc(C#N)cc1OC(F)(F)F)C(C(C)=O)=C(C)N2 (stereo not drawn) [Example 21, 4-(3-Acetyl-5-ethoxy-2-methyl-1,4-dihydro-1,6-naphthyridin-4-yl)-3-(trifluoromethoxy)benzonitrile] — 2.9-fold lower, 30 nM
- CCOc1nccc2c1C(c1ccc(C#N)cc1CC)C(C(C)=O)=C(C)N2 (stereo not drawn) [Example 24, 4-(3-Acetyl-5-ethoxy-2-methyl-1,4-dihydro-1,6-naphthyridin-4-yl)-3-ethylbenzonitrile] — 2.8-fold lower, 31 nM
- CCOc1nccc2c1C(c1ccc(C#N)c3ccccc13)C(C(C)=O)=C(C)N2 (stereo not drawn) [Example 32, 4-(3-Acetyl-5-ethoxy-2-methyl-1,4-dihydro-1,6-naphthyridin-4-yl)-1-naphthonitrile] — 22-fold lower, 4 nM
- CCOc1nccc2c1C(c1ccc(C#N)cc1OC)C(C#N)=C(C(F)(F)F)N2 (stereo not drawn) [Example 33, 4-(4-Cyano-2-methoxyphenyl)-5-ethoxy-2-(trifluoromethyl)-1,4-dihydro-1,6-naphthyridine-3-carbonitrile] — 2.5-fold lower, 35 nM
- CCOc1nc(C)cc2c1C(c1ccc(C#N)cc1OC)C(C#N)=C(C)N2 (stereo not drawn) [Example 35, 4-(4-Cyano-2-methoxyphenyl)-5-ethoxy-2,7-dimethyl-1,4-dihydro-1,6-naphthyridine-3-carbonitrile] — within 1.5-fold, 122 nM
- CCOc1ncc(C)c2c1C(c1ccc(C#N)cc1OC)C(C#N)=C(C)N2 (stereo not drawn) [Example 37, 4-(4-Cyano-2-methoxyphenyl)-5-ethoxy-2,8-dimethyl-1,4-dihydro-1,6-naphthyridine-3-carbonitrile] — within 1.5-fold, 73 nM

Reference: patent US8404709B2, “Substituted 4-aryl-1,4-dihydro-1,6-naphthyridines and use thereof” (Bayer Intellectual Property GmbH, priority 2007, dated 2013)
